Experimental data taken from patent US20210230178A1, “TRIOXACARCIN ANALOGS AND DIMERS AS POTENT ANTICANCER AGENTS” (William Marsh Rice University, priority 2017, published 2021).
pIC50: −log10 of the molar value. Where two headings read alike, the source gives them in different places.

Key:
[1] = test system: HEK 293T (human embryonic kidney cancer cell line); settings: for pIC50: read-out: IC50 HEK 293T
[2] = test system: HEK 293T (human embryonic kidney cancer cell line); assay: cells; settings: 72 h, read-out: IC50 HEK 293T
[3] = test system: MES SA (human uterine sarcoma); settings: for pIC50: read-out: IC50 MES SA
[4] = test system: MES SA (human uterine sarcoma); assay: cells; settings: 72 h, read-out: IC50 MES SA
[5] = test system: MES SA DX (human uterine sarcoma cell line with marked multidrug resistance); assay: cells; settings: 72 h, read-out: IC50 MES SA DX
[6] = test system: MES SA DX (human uterine sarcoma cell line with marked multidrug resistance); settings: for pIC50: read-out: IC50 MES SA DX

**Q.** With `COc1c2c(c(O)c3c4c(c(C)cc13)C1OC3(C5OCCCO5)OC1[C@@](OC)(O4)[C@@]31CO1)C(=O)CCC2` (stereo partly drawn) [Trx13] as the compound, how does the pIC50 [1] read?
**A.** 9.40

**Q.** And the pIC50 [2]?
**A.** 9.30

**Q.** And the pIC50 [3]?
**A.** 9.25

**Q.** What about the pIC50 [4] of the same compound?
**A.** 9.28

**Q.** What about the pIC50 [5] of the same compound?
**A.** 9.42

**Q.** What about the pIC50 [6] of the same compound?
**A.** 9.38

**Q.** `COc1c2c(c(O)c3c4c(c(C)cc13)C1OC3(C5OCCCO5)OC1[C@@](OCC=CCO[C@@]15Oc6c(c(C)cc7c(OC)c8c(c(O)c67)C(=O)CCC8)C6OC(C7OCCCO7)(OC61)[C@]51CO1)(O4)[C@@]31CO1)C(=O)CCC2` (stereo partly drawn) [Trx25, (1S,2S,3aS,4R,13aR,1′″S,2′″S,3a′″S,4′R,13a′″R)-13a,13a′-[(2E)-but-2-ene-1,4-diylbis(oxy)]bis[2-(1,3-dioxan-2-yl)-12-hydroxy-7-methoxy-5-methyl-3a,4,8,9,10,13a-hexahydro-11H-spiro[2,4-epoxyfuro[3,2-b]naphtho[2,3-h]chromene-1,2′-oxiran]-11-one]] was tested. Which pIC50 [1] did it give?
**A.** 6.98

**Q.** And the pIC50 [3]?
**A.** 6.63

**Q.** And the pIC50 [6]?
**A.** 6.37

**Q.** With `COc1c2c(c(OC(C)=O)c3c4c(c(C)cc13)[C@H]1O[C@]3(C5OCCCO5)O[C@@H]1[C@@](OC(C)=O)(O4)[C@@]31CO1)C(=O)CCC2` [Trx26, (1S,2S,3aS,4R,13aS)-2-(1,3-Dioxan-2-yl)-7-methoxy-5-methyl-11-oxo-3a,4,8,9,10,11-hexahydro-13aH-spiro[2,4-epoxyfuro[3,2-b]naphtho[2,3-h]chromene-1,2′-oxirane]-12,13a-diyl diacetate] as the compound, how does the “cytotoxic potency against HEK 293T, in words” value [1] read?
**A.** no significant loss of potency

**Q.** And the pIC50 [2]?
**A.** 7.93

**Q.** What about the “cytotoxic potency against MES SA, in words” value [3] of the same compound?
**A.** no significant loss of potency

**Q.** And the pIC50 [4]?
**A.** 7.17

**Q.** What about the pIC50 [5] of the same compound?
**A.** 7.22

**Q.** What about the “cytotoxic potency against MES SA DX, in words” value [6] of the same compound?
**A.** no significant loss of potency

**Q.** Which results are given for `COc1c2c(c(OC(C)=O)c3c4c(c(C)cc13)[C@H]1O[C@]3(C5OCCCO5)O[C@@H]1[C@@](OC)(O4)[C@@]31CO1)C(=O)CCC2` [Trx27, (1S,2S,3aS,4R,13aR)-2-(1,3-Dioxan-2-yl)-7,13a-dimethoxy-5-methyl-11-oxo-3a,8,9,10,11,13a-hexahydro-4H-spiro[2,4-epoxyfuro[3,2-b]naphtho[2,3-h]chromene-1,2′-oxiran]-12-yl acetate]?
**A.** cytotoxic potency against HEK 293T, in words [1]: no significant loss of potency; pIC50 [2]: 8.91; cytotoxic potency against MES SA, in words [3]: no significant loss of potency; pIC50 [4]: 8.67; pIC50 [5]: 8.84; cytotoxic potency against MES SA DX, in words [6]: no significant loss of potency

**Q.** “(4R,5S,6R,10S)-8-{[(1S,2R)-2-(1,3-Dioxan-2-yl)-12-hydroxy-7-methoxy-5-methyl-11-oxo-3a,4,8,9,10,11-hexahydro-13aH-spiro[2,4-epoxyfuro[3,2-b]naphtho[2,3-h]chromene-1,2′-oxiran]-13a-yl]oxy}-4,6-dimethyl-2-oxo-1,3,7-trioxaspiro[4.5]dec-10-ylacetate [Trx22]” was tested. Which pIC50 [1] did it give?
**A.** 8.38

**Q.** What about the pIC50 [3] of the same compound?
**A.** 8.24

**Q.** What about the pIC50 [6] of the same compound?
**A.** 7.24
